Data on 13 compounds can be found in patent US20260022142A1, “MACROCYCLIC IMMUNOMODULATORS” (Bristol-Myers Squibb Company, priority 2022, published 2026).

Bridge positions count the residues as written; N and C are the ends. Square brackets hold non-standard residues; d marks the D form. Peptide text beside a SMILES is read from it. * marks the point of attachment. ξ: configuration not given here. Phe(4-COOH) = N[C@@H](Cc1ccc(C(=O)O)cc1)C(=O)O; Bip = N[C@@H](Cc1ccc(-c2ccccc2)cc1)C(=O)O; Phe(3-Me) = Cc1cccc(C[C@H](N)C(=O)O)c1; hArg = N=C(N)NCCCC[C@H](N)C(=O)O; hCit = NC(=O)NCCCC[C@H](N)C(=O)O; 4Pal = N[C@@H](Cc1ccncc1)C(=O)O; 3Thi = N[C@@H](Cc1ccsc1)C(=O)O; Cha = N[C@@H](CC1CCCCC1)C(=O)O; aThr = C[C@H](O)[C@H](N)C(=O)O; Thr(3ξ) = CC(O)[C@H](N)C(=O)O; 12Ado = NCCCCCCCCCCCC(=O)O; Carboxymethyl = O=C(O)C*; Orn = NCCC[C@H](N)C(=O)O; Aun = NCCCCCCCCCCC(=O)O; Dab = NCC[C@H](N)C(=O)O; Dap = NC[C@H](N)C(=O)O; AEEA = NCCOCCOCC(=O)O

T1 sequence (Q15116 25-288): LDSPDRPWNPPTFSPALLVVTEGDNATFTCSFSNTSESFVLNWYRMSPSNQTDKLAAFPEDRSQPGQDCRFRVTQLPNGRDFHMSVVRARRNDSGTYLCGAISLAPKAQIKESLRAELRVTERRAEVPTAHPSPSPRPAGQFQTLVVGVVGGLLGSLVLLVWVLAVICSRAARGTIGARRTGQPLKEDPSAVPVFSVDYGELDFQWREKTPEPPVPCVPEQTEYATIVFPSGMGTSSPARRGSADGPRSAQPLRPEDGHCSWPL

This test has as its target T1, PD-1/PD-L1 interaction (PE-labeled human PD-L1-Ig binding to Jurkat cell line over-expressing human PD-1) (Homo sapiens, UniProt Q15116).
T1 construct: expressed in transfected cells; host or cells: Jurkat
The test can be described thus: Jurkat-PD-1 Cell Binding High-Content Screening Assay (CBA). The class given is cell-based. The following applies: Jurkat cell line over-expressing human PD-1; PE-labeled PD-L1-Ig 20 nM final; read-out: Jurkat hPD1-PDL1 IC50. A digest of the protocol: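 Binding of fluorescent PD-L1-Ig (20 nM final) to Jurkat-PD-1 cells was measured by automated imaging after 1 h, following a 2 h compound pre-treatment at 37° C.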
Usually IC50 stands for the concentration that gives 50% inhibition. With `Cc1cccc(C[C@@H]2NC(=O)[C@H](CC(=O)O)NC(=O)[C@H](Cc3ccc(OCC(=O)O)cc3)NC(=O)[C@H](CN)NC(=O)CSC[C@@H](C(=O)N[C@@H](CCCCN)C(=O)NCCCCCCCCCCC(=O)O)NC(=O)[C@H](C(C)O)NC(=O)[C@H](C(C)C)NC(=O)[C@H](CC3CCCCC3)NC(=O)[C@H](Cc3cnc[nH]3)NC(=O)[C@@H](CC(C)C)NC(=O)[C@H](CCCN)NC(=O)[C@H](CCC(=O)O)NC(=O)[C@H](Cc3ccc(-c4ccccc4)cc3)NC(=O)[C@H](C(C)C)NC2=O)c1` (stereo partly drawn) [Compound 3160] ({CH2CO}-[Dap]Y(Carboxymethyl)D[Phe(3-Me)]V[Bip]E[Orn][dL]H[Cha]V[Thr(3ξ)]CK[Aun]-OH; thioether N-14), the IC50 is 37.5 nM.

As to `Cc1cccc(C[C@@H]2NC(=O)[C@H](CC(=O)O)NC(=O)[C@H](Cc3ccc(OCC(=O)O)cc3)NC(=O)[C@H](CCCCNC(=N)N)NC(=O)CSC[C@@H](C(=O)N[C@@H](CCCCN)C(=O)NCCCCCCCCCCC(=O)O)NC(=O)[C@H](C(C)O)NC(=O)[C@H](C(C)C)NC(=O)[C@H](CC3CCCCC3)NC(=O)[C@H](Cc3cnc[nH]3)NC(=O)[C@@H](CC(C)C)NC(=O)[C@H](CCCN)NC(=O)[C@H](CCC(=O)O)NC(=O)[C@H](Cc3ccc(-c4ccccc4)cc3)NC(=O)[C@H](C(C)C)NC2=O)c1` (stereo partly drawn) [Compound 3161] ({CH2CO}-[hArg]Y(Carboxymethyl)D[Phe(3-Me)]V[Bip]E[Orn][dL]H[Cha]V[Thr(3ξ)]CK[Aun]-OH; thioether N-14), the concentration for half-maximal inhibition (IC50) was found to be 38.9 nM. The value for `Cc1cccc(C[C@@H]2NC(=O)[C@H](CC(=O)O)NC(=O)[C@H](Cc3ccc(OCC(=O)O)cc3)NC(=O)[C@H](CCCCNC(=N)N)NC(=O)CSC[C@@H](C(=O)NCCOCCOCC(=O)N[C@@H](CCCCN)C(=O)NCCCCCCCCCCC(=O)O)NC(=O)[C@H]([C@H](C)O)NC(=O)[C@H](C(C)C)NC(=O)[C@H](CC3CCCCC3)NC(=O)[C@H](CC(N)=O)NC(=O)[C@@H](CC(C)C)NC(=O)[C@H](CCCN)NC(=O)[C@H](C(C)C)NC(=O)[C@H](Cc3ccc(-c4ccccc4)cc3)NC(=O)[C@H](C(C)C)NC2=O)c1` [Compound 3162] ({CH2CO}-[hArg]Y(Carboxymethyl)D[Phe(3-Me)]V[Bip]V[Orn][dL]N[Cha]V[aThr]C[AEEA]K[Aun]-OH; thioether N-14) was 26.3 nM; that for `CC(C)C[C@H]1NC(=O)[C@H](CCCN)NC(=O)[C@H](C(C)C)NC(=O)[C@H](Cc2ccc(-c3ccccc3)cc2)NC(=O)[C@H](C(C)C)NC(=O)[C@H](Cc2c[nH]c3ccccc23)NC(=O)[C@H](CC(=O)O)NC(=O)[C@H](Cc2ccc(OCC(=O)O)cc2)NC(=O)[C@H](CCCCNC(=N)N)NC(=O)CSC[C@@H](C(=O)NCCOCCOCC(=O)N[C@@H](CCCCN)C(=O)NCCCCCCCCCCC(=O)O)NC(=O)[C@H]([C@H](C)O)NC(=O)[C@H](C(C)C)NC(=O)[C@H](CC2CCCCC2)NC(=O)[C@H](CC(N)=O)NC1=O` [Compound 3163] ({CH2CO}-[hArg]Y(Carboxymethyl)DWV[Bip]V[Orn][dL]N[Cha]V[aThr]C[AEEA]K[Aun]-OH; thioether N-14) was 22.3 nM; that for `CC(C)C[C@H]1NC(=O)[C@H](CCCN)NC(=O)[C@H](C(C)C)NC(=O)[C@H](Cc2ccc(-c3ccccc3)cc2)NC(=O)[C@H](C(C)C)NC(=O)[C@H](Cc2c[nH]c3ccccc23)NC(=O)[C@H](CC(=O)O)NC(=O)[C@H](Cc2ccc(OCC(=O)O)cc2)NC(=O)[C@H](CN)NC(=O)CSC[C@@H](C(=O)NCCOCCOCC(=O)N[C@@H](CCCCN)C(=O)NCCCCCCCCCCC(=O)O)NC(=O)[C@H]([C@H](C)O)NC(=O)[C@H](C(C)C)NC(=O)[C@H](CC2CCCCC2)NC(=O)[C@H](CC(N)=O)NC1=O` [Compound 3164] ({CH2CO}-[Dap]Y(Carboxymethyl)DWV[Bip]V[Orn][dL]N[Cha]V[aThr]C[AEEA]K[Aun]-OH; thioether N-14) was 29.9 nM. As for `CC(C)C[C@H]1NC(=O)[C@H](CCCN)NC(=O)[C@H](C(C)C)NC(=O)[C@H](Cc2ccc(-c3ccccc3)cc2)NC(=O)[C@H](C(C)C)NC(=O)[C@H](Cc2c[nH]c3ccccc23)NC(=O)[C@H](CC(=O)O)NC(=O)[C@H](Cc2ccc(OCC(=O)O)cc2)NC(=O)[C@H](CCCCNC(=N)N)NC(=O)CSC[C@@H](C(=O)NCCOCCOCC(=O)N[C@@H](CCCCN)C(=O)NCCCCCCCCCCCC(=O)O)NC(=O)[C@H](C(C)O)NC(=O)[C@H](C(C)C)NC(=O)[C@H](CC2CCCCC2)NC(=O)[C@H](CCN)NC1=O` (stereo partly drawn) [Compound 3165] ({CH2CO}-[hArg]Y(Carboxymethyl)DWV[Bip]V[Orn][dL][Dab][Cha]V[Thr(3ξ)]C[AEEA]K[12Ado]-OH; thioether N-14), the figure is 30.6 nM; as for `CC(C)C[C@H]1NC(=O)[C@H](CCCCN)NC(=O)[C@H](C(C)C)NC(=O)[C@H](Cc2ccc(-c3ccccc3)cc2)NC(=O)[C@H](C(C)C)NC(=O)[C@H](Cc2c[nH]c3ccccc23)NC(=O)[C@H](CC(=O)O)NC(=O)[C@H](Cc2ccc(OCC(=O)O)cc2)NC(=O)[C@H](Cc2ccsc2)NC(=O)CSC[C@@H](C(=O)NCCOCCOCC(=O)N[C@@H](CCCN)C(=O)NCCCCCCCCCCC(=O)O)NC(=O)[C@H](C(C)O)NC(=O)[C@H](C(C)C)NC(=O)[C@H](CC2CCCCC2)NC(=O)[C@H](CCN)NC1=O` (stereo partly drawn) [Compound 3167] ({CH2CO}-[3Thi]Y(Carboxymethyl)DWV[Bip]VK[dL][Dab][Cha]V[Thr(3ξ)]C[AEEA][Orn][Aun]-OH; thioether N-14), 59 nM; as for `CC(C)C[C@H]1NC(=O)[C@H](CCCN)NC(=O)[C@H](C(C)C)NC(=O)[C@H](Cc2ccc(-c3ccccc3)cc2)NC(=O)[C@H](C(C)C)NC(=O)[C@H](Cc2c[nH]c3ccccc23)NC(=O)[C@H](CC(=O)O)NC(=O)[C@H](Cc2ccc(OCC(=O)O)cc2)NC(=O)[C@H](Cc2ccsc2)NC(=O)CSC[C@@H](C(=O)N[C@@H](CCCN)C(=O)NCCOCCOCC(=O)NCCCCCCCCCCCC(=O)O)NC(=O)[C@H](C(C)O)NC(=O)[C@H](C(C)C)NC(=O)[C@H](CC2CCCCC2)NC(=O)[C@H](CCN)NC1=O` (stereo partly drawn) [Compound 3168] ({CH2CO}-[3Thi]Y(Carboxymethyl)DWV[Bip]V[Orn][dL][Dab][Cha]V[Thr(3ξ)]C[Orn][AEEA][12Ado]-OH; thioether N-14), 73.6 nM. The value for `CC(C)C[C@H]1NC(=O)[C@H](CCCN)NC(=O)[C@H](C(C)C)NC(=O)[C@H](Cc2ccc(-c3ccccc3)cc2)NC(=O)[C@H](C(C)C)NC(=O)[C@H](Cc2c[nH]c3ccccc23)NC(=O)[C@H](CC(=O)O)NC(=O)[C@H](CCCCNC(N)=O)NC(=O)[C@H](Cc2ccc(OCC(=O)O)cc2)NC(=O)CSC[C@@H](C(=O)NCC(=O)NCCOCCOCC(=O)N[C@@H](CCCN)C(=O)NCCCCCCCCCCCC(=O)O)NC(=O)[C@H](CN)NC(=O)[C@H](C(C)C)NC(=O)[C@H](CC2CCCCC2)NC(=O)[C@H](CCN)NC1=O` [Compound 3169] ({CH2CO}-Y(Carboxymethyl)[hCit]DWV[Bip]V[Orn][dL][Dab][Cha]V[Dap]CG[AEEA][Orn][12Ado]-OH; thioether N-14) was 20.8 nM. On to `CC(C)C[C@H]1NC(=O)[C@H](CCCN)NC(=O)[C@H](C(C)C)NC(=O)[C@H](Cc2ccc(-c3ccccc3)cc2)NC(=O)[C@H](C(C)C)NC(=O)[C@H](Cc2c[nH]c3ccccc23)NC(=O)[C@H](CC(=O)O)NC(=O)[C@H](Cc2ccncc2)NC(=O)[C@H](Cc2ccc(OCC(=O)O)cc2)NC(=O)CSC[C@@H](C(=O)NCC(=O)NCCOCCOCC(=O)N[C@@H](CCCN)C(=O)NCCCCCCCCCCCC(=O)O)NC(=O)[C@H](CN)NC(=O)[C@H](C(C)C)NC(=O)[C@H](CC2CCCCC2)NC(=O)[C@H](CCN)NC1=O` [Compound 3170] ({CH2CO}-Y(Carboxymethyl)[4Pal]DWV[Bip]V[Orn][dL][Dab][Cha]V[Dap]CG[AEEA][Orn][12Ado]-OH; thioether N-14), for which the IC50 is 17.5 nM. On to `CC(C)C[C@H]1NC(=O)[C@H](CCCN)NC(=O)[C@H](C(C)C)NC(=O)[C@H](Cc2ccc(-c3ccccc3)cc2)NC(=O)[C@H](C(C)C)NC(=O)[C@H](Cc2c[nH]c3ccccc23)NC(=O)[C@H](CC(=O)O)NC(=O)[C@H](Cc2ccc(C(=O)O)cc2)NC(=O)[C@H](Cc2ccc(OCC(=O)O)cc2)NC(=O)CSC[C@@H](C(=O)NCC(=O)NCCOCCOCC(=O)N[C@@H](CCCN)C(=O)NCCCCCCCCCCCC(=O)O)NC(=O)[C@H](CN)NC(=O)[C@H](C(C)C)NC(=O)[C@H](CC2CCCCC2)NC(=O)[C@H](CCN)NC1=O` [Compound 3171] ({CH2CO}-Y(Carboxymethyl)[Phe(4-COOH)]DWV[Bip]V[Orn][dL][Dab][Cha]V[Dap]CG[AEEA][Orn][12Ado]-OH; thioether N-14), for which the IC50 amounted to 6.1 nM. As for `CC(C)C[C@H]1NC(=O)[C@H](CCCN)NC(=O)[C@H](C(C)C)NC(=O)[C@H](Cc2ccc(-c3ccccc3)cc2)NC(=O)[C@H](C(C)C)NC(=O)[C@H](Cc2c[nH]c3ccccc23)NC(=O)[C@H](CC(=O)O)NC(=O)[C@H](Cc2ccc(OCC(=O)O)cc2)NC(=O)[C@H](CCCNC(=N)N)NC(=O)CSC[C@@H](C(=O)NCC(=O)NCCOCCOCC(=O)N[C@@H](CCCN)C(=O)NCCCCCCCCCCCC(=O)O)NC(=O)[C@H](CN)NC(=O)[C@H](C(C)C)NC(=O)[C@H](CC2CCCCC2)NC(=O)[C@H](CCN)NC1=O` [Compound 3172] ({CH2CO}-RY(Carboxymethyl)DWV[Bip]V[Orn][dL][Dab][Cha]V[Dap]CG[AEEA][Orn][12Ado]-OH; thioether N-14), the figure is 10.7 nM; as for `CC(C)C[C@H]1NC(=O)[C@H](CCCN)NC(=O)[C@H](C(C)C)NC(=O)[C@H](Cc2ccc(-c3ccccc3)cc2)NC(=O)[C@H](C(C)C)NC(=O)[C@H](Cc2c[nH]c3ccccc23)NC(=O)[C@H](CC(=O)O)NC(=O)[C@H](Cc2ccc(OCC(=O)O)cc2)NC(=O)[C@H](CCCCNC(=N)N)NC(=O)CSC[C@@H](C(=O)NCC(=O)NCCOCCOCC(=O)N[C@@H](CCCN)C(=O)NCCCCCCCCCCCC(=O)O)NC(=O)[C@H](CN)NC(=O)[C@H](C(C)C)NC(=O)[C@H](CC2CCCCC2)NC(=O)[C@H](CCN)NC1=O` [Compound 3173] ({CH2CO}-[hArg]Y(Carboxymethyl)DWV[Bip]V[Orn][dL][Dab][Cha]V[Dap]CG[AEEA][Orn][12Ado]-OH; thioether N-14), 21.2 nM.
